Earlier results in US10596151B2, “Methods and pharmaceutical compositions for reducing arterial stiffness with a combination of a therapeutic agent blocking the angiotensin receptor and a therapeutic agent inhibiting the NEP enzyme” (Novartis AG, priority 2015, dated 2020).

Tested on: patients with hypertension
Conditions: after 12 weeks of therapy; cited from earlier work

SMILES: O=C(N[C@H]1CCS[C@H]2CCC[C@@H](C(=O)O)N2C1=O)[C@@H](S)Cc1ccccc1 [omapatrilat]
- aortic characteristic impedance compared with enalapril: greater improvements in aortic characteristic impedance compared with enalapril
